According to EPA's CvTdb concentration-time database (doi:10.1093/toxsci/kfy020):

Test system: rat
Experiment: concentration in plasma after dosing
Conditions: dosed: Ondansetron, male, Sprague-Dawley

Cc1nccn1CC1CCc2c(c3ccccc3n2C)C1=O (stereo not given) [Ondansetron]
concentration in plasma [ng/mL]
Conditions | 1.0000000000 mg/kg | 4.0000000000 mg/kg | 8.0000000000 mg/kg | 20.0000000000 mg/kg
0.05 h, iv | 781 | 3050 | 6280 | 17600
0.05 h, oral | – | 70 | 100 | 491
0.25 h, iv | 231 | 830 | 1860 | 5550
0.5 h, iv | 129 | 429 | 960 | 2930
0.5 h, oral | – | 49.1 | 92 | 288
0.75 h, iv | 72.6 | 256 | 597 | 1860
1 h, iv | 47.1 | 176 | 379 | 1260
1 h, oral | – | 23.5 | 40.6 | 165
1 min, iv | 16200 | 37100 | 104000 | 175000
1.25 h, iv | 31.1 | 112 | 246 | 813
1.5 h, iv | – | 75.7 | 176 | 561
1.5 h, oral | – | – | 21.4 | 82.7
2 h, iv | – | 38.3 | 87.4 | 308
2 h, oral | – | – | – | 46.8
2.5 h, iv | – | – | 44.2 | 184
3 h, iv | – | – | 23.3 | 101
4 h, iv | – | – | – | 39.1
5 min, oral | – | 244 | 249 | 1110
7 min, iv | 420 | 1480 | 3240 | 10100
10 min, oral | – | 171 | 298 | 808
20 min, oral | – | 83.7 | 138 | 441
40 min, oral | – | 39.6 | 70 | 255
50 min, oral | – | 30.2 | 57.9 | 197
